In ChEMBL document CHEMBL3991601, “The target landscape of clinical kinase drugs” (Science, 2017):
The source made the active and inactive calls.

Columns and labels:
[1] = molecular target: Casein kinase I isoform gamma-1 (Homo sapiens, UniProt Q9HCP0)
[2] = molecular target: Protein kinase C delta type (Homo sapiens, UniProt Q05655)
[3] = molecular target: Adenosine kinase (Homo sapiens, UniProt P55263)
[4] = molecular target: Tyrosine-protein kinase ABL2 (Homo sapiens, UniProt P42684)
[5] = molecular target: T1, Ras-related protein Rab-27A (Homo sapiens, UniProt P51159)
T1 sequence (P51159 whole entry): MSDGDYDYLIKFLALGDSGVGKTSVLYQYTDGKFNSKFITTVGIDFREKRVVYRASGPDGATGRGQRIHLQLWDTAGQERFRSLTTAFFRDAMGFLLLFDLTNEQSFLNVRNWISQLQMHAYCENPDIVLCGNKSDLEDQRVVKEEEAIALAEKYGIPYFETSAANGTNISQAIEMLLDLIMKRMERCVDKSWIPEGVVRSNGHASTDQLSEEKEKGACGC

[6] = molecular target: T2, NUAK family SNF1-like kinase 2 (Homo sapiens, UniProt Q9H093)
T2 sequence (Q9H093 whole entry): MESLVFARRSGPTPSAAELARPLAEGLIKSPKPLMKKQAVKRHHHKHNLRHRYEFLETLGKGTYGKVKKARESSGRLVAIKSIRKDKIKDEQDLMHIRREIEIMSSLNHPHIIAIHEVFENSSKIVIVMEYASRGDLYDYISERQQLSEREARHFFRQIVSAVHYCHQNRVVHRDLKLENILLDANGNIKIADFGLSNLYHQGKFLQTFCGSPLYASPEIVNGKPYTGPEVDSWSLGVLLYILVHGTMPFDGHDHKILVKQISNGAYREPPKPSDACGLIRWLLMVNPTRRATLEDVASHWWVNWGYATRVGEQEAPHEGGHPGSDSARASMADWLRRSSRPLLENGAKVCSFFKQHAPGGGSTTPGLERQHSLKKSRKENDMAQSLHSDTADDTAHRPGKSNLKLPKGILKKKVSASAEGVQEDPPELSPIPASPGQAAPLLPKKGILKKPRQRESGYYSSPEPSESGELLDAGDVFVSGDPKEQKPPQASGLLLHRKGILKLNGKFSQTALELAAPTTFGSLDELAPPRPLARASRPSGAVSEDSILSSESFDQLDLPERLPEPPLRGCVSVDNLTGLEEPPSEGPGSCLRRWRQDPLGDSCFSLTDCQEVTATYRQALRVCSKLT

[7] = molecular target: T3, Delta(24)-sterol reductase (Homo sapiens, UniProt Q15392)
T3 sequence (Q15392 whole entry): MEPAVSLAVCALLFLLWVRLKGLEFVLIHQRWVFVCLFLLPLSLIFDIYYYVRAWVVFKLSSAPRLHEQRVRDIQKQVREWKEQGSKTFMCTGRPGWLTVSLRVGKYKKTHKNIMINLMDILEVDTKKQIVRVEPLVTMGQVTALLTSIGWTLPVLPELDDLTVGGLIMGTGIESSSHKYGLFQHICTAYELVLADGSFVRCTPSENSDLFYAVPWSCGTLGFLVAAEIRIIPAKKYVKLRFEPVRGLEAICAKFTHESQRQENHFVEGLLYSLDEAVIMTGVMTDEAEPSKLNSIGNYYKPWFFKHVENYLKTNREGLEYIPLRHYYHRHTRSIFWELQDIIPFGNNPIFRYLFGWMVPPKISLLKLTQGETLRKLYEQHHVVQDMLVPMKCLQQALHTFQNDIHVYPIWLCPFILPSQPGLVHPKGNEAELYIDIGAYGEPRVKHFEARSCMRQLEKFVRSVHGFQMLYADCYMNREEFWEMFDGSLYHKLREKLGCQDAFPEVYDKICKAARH

[8] = molecular target: MAP kinase-activated protein kinase 2 (Homo sapiens, UniProt P49137)
Chain of MAP kinase-activated protein kinase 2 (P49137 whole entry): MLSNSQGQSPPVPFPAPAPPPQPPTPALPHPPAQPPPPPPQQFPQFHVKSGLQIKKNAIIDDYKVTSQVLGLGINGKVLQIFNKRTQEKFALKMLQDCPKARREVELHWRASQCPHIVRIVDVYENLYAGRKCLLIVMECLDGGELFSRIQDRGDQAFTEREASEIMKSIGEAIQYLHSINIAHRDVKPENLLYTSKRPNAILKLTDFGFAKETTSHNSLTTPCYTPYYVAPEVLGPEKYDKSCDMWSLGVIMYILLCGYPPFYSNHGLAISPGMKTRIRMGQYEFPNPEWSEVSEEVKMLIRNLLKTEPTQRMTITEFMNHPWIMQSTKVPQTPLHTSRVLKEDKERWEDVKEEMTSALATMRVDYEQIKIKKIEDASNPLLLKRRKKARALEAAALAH

[9] = molecular target: T4, Serine/threonine-protein kinase NLK (Homo sapiens, UniProt Q9UBE8)
T4 sequence (Q9UBE8 whole entry): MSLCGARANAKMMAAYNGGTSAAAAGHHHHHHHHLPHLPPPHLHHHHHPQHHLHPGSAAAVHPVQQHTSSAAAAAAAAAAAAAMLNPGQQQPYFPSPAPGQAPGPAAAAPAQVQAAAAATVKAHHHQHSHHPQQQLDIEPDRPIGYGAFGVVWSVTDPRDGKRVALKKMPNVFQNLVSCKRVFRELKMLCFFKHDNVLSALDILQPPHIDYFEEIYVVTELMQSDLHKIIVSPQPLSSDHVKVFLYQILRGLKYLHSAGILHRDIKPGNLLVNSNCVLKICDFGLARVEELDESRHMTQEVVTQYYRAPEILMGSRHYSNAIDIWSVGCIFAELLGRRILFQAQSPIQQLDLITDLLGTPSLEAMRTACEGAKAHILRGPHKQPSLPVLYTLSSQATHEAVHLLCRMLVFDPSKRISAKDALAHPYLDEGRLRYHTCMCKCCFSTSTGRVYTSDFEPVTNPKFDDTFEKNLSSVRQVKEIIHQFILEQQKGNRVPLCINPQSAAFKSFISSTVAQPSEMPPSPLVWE

[10] = molecular target: T5, Tyrosine-protein kinase Tec (Homo sapiens, UniProt P42680)
T5 sequence (P42680 whole entry): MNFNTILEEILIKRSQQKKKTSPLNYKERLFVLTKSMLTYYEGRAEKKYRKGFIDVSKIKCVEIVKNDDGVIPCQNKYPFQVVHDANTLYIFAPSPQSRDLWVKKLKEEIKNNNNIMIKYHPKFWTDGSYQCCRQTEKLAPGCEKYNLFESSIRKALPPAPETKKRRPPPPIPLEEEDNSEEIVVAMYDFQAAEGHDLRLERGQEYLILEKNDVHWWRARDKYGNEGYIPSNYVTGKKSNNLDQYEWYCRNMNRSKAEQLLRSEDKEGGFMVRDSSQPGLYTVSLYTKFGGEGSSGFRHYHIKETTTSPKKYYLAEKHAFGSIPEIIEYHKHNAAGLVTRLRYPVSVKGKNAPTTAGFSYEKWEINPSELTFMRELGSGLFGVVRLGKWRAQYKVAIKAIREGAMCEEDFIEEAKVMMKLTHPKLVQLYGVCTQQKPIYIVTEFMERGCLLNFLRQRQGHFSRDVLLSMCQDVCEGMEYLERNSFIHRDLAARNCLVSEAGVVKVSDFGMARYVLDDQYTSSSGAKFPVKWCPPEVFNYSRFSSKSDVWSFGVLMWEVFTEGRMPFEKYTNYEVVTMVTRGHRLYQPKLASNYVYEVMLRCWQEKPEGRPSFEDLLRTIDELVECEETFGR

[11] = molecular target: BMP-2-inducible protein kinase (Homo sapiens, UniProt Q9NSY1)
Chain of BMP-2-inducible protein kinase (Q9NSY1 whole entry): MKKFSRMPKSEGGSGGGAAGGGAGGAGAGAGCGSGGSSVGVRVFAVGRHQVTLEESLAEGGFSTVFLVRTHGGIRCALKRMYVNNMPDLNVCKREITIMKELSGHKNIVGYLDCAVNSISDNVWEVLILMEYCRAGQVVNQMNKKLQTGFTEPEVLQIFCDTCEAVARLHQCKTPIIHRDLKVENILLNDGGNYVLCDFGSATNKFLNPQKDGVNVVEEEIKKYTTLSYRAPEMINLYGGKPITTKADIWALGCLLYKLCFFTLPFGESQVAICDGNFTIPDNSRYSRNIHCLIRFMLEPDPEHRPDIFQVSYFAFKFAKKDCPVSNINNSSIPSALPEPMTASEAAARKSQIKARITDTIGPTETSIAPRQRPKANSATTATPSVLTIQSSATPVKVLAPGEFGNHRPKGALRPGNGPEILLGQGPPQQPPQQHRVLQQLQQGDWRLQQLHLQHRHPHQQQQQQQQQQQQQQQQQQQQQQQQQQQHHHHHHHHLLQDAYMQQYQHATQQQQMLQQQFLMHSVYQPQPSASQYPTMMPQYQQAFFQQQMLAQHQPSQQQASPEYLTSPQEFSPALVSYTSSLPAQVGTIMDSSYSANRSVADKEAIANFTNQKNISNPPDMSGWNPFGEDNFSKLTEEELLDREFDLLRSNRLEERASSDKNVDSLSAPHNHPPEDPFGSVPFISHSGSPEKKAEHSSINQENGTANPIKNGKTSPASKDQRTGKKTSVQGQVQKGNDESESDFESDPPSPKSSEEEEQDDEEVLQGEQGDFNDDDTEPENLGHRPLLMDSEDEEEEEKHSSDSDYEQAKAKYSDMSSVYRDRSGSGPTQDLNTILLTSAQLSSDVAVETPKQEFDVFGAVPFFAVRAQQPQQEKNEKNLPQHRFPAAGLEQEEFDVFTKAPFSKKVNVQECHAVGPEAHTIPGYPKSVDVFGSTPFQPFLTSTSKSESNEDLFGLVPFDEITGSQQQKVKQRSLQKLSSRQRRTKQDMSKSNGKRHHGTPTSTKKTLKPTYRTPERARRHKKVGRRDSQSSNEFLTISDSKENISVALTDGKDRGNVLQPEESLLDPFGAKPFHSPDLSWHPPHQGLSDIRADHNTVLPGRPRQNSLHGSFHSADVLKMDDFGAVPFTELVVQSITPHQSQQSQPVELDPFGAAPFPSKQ
Further: in the data inactive means no Kd found up to 30 µM.

Chain of Adenosine kinase (P55263 whole entry): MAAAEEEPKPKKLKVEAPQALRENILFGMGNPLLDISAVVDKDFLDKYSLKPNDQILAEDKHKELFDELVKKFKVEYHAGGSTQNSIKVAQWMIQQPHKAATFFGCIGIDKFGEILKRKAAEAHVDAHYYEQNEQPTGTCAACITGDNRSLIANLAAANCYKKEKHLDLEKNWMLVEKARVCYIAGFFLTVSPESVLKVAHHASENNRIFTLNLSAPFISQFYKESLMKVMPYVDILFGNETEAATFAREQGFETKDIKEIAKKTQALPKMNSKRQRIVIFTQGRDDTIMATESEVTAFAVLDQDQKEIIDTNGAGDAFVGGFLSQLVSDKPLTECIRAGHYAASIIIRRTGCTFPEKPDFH
Chain of Protein kinase C delta type (Q05655 whole entry): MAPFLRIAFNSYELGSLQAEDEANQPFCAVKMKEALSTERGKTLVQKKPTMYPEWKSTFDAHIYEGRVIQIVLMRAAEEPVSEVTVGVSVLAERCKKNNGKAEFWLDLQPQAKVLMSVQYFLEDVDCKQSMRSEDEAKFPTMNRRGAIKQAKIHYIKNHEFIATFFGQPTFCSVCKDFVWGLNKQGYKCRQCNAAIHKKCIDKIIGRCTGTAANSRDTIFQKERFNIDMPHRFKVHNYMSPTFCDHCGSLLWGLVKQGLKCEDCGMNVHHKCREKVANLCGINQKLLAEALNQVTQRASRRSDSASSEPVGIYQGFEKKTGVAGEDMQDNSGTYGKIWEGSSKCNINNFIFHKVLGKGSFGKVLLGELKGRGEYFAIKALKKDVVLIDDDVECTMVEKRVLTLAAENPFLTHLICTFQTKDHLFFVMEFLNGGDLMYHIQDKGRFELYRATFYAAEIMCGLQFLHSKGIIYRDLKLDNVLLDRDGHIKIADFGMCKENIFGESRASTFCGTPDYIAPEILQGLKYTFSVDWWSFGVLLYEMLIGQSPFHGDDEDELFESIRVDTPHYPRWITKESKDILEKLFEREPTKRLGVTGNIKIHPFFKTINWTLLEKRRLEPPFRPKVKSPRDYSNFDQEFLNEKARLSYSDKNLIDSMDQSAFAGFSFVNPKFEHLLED
Chain of Casein kinase I isoform gamma-1 (Q9HCP0 whole entry, canonical isoform): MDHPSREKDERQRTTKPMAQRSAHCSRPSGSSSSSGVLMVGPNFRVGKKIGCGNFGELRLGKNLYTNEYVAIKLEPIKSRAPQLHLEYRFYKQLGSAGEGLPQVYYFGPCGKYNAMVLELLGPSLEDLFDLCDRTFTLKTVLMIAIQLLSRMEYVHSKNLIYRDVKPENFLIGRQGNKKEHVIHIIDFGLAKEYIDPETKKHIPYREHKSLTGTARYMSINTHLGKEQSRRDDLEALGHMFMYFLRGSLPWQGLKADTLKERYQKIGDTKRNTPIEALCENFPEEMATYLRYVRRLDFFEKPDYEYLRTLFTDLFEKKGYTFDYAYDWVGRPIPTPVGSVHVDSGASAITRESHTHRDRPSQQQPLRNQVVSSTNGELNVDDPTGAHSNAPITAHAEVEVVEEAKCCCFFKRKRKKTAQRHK
Chain of Tyrosine-protein kinase ABL2 (P42684 whole entry): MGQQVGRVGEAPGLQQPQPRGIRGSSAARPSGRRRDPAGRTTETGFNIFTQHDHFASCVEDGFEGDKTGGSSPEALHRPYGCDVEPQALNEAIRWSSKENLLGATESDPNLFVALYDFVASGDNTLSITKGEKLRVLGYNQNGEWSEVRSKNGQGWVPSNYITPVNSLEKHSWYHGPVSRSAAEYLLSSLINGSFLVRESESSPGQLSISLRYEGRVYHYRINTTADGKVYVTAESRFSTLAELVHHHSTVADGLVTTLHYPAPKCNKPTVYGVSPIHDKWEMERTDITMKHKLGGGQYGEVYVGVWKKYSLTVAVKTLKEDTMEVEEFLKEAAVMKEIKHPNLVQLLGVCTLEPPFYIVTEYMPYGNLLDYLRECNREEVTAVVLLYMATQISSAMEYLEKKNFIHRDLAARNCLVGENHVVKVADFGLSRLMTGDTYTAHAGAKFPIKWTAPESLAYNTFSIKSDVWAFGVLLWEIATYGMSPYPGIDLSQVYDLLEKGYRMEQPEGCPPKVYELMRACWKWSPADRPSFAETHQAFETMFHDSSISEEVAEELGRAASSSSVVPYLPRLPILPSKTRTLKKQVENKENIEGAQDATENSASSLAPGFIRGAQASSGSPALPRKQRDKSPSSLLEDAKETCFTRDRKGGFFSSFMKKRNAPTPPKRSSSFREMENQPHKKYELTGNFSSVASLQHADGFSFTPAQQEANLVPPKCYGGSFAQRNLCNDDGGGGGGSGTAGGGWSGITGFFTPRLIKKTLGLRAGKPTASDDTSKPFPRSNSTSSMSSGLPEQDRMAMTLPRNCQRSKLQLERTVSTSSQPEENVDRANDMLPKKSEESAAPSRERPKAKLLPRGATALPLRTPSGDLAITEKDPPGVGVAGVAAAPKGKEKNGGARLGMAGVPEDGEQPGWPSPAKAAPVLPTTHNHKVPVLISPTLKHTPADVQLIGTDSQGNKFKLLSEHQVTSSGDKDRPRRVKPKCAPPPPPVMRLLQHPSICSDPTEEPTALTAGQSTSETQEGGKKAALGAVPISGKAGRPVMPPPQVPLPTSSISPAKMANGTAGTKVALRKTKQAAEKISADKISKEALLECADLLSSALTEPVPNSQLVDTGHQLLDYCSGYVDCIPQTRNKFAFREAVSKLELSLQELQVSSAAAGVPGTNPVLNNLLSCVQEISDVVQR

| Kd [1] | Kd [2] | Kd [3] | Kd [4] | Kd [5] | Kd [6] | Kd [7] | Kd [8] | Kd [9] | Kd [10] | Kd [11] | SMILES |
| --- | --- | --- | --- | --- | --- | --- | --- | --- | --- | --- | --- |
| > 30 µM (inactive) | > 30 µM (inactive) | > 30 µM (inactive) | > 30 µM (inactive) | > 30 µM (inactive) | > 30 µM (inactive) | > 30 µM (inactive) | > 30 µM (inactive) | > 30 µM (inactive) | > 30 µM (inactive) | > 30 µM (inactive) | N[C@@H]1CCCN(c2c(/C=C3\SC(=O)NC3=O)cccc2-c2ccccc2)C1 |
| > 30 µM (inactive) | > 30 µM (inactive) | 1.4 µM | > 30 µM (inactive) | > 30 µM (inactive) | > 30 µM (inactive) | > 30 µM (inactive) | > 30 µM (inactive) | > 30 µM (inactive) | > 30 µM (inactive) | > 30 µM (inactive) | CNC(=O)CN1CCC(Oc2cc3c(Nc4cccc(Cl)c4F)ncnc3cc2OC)CC1 [SAPITINIB] |
| > 30 µM (inactive) | > 30 µM (inactive) | > 30 µM (inactive) | > 30 µM (inactive) | > 30 µM (inactive) | > 30 µM (inactive) | > 30 µM (inactive) | > 30 µM (inactive) | > 30 µM (inactive) | > 30 µM (inactive) | > 30 µM (inactive) | CCc1cnn2c(NCc3ccc[n+]([O-])c3)cc(N3CCCC[C@H]3CCO)nc12 [DINACICLIB] |
| > 30 µM (inactive) | > 30 µM (inactive) | > 30 µM (inactive) | > 30 µM (inactive) | > 30 µM (inactive) | > 30 µM (inactive) | > 30 µM (inactive) | > 30 µM (inactive) | > 30 µM (inactive) | > 30 µM (inactive) | > 30 µM (inactive) | CC[C@@H]1C(=O)N(C)c2cnc(Nc3ccc(C(=O)N[C@H]4CC[C@H](N5CCN(CC6CC6)CC5)CC4)cc3OC)nc2N1C(C)C [VOLASERTIB] |
| > 30 µM (inactive) | > 30 µM (inactive) | > 30 µM (inactive) | > 30 µM (inactive) | > 30 µM (inactive) | > 30 µM (inactive) | > 30 µM (inactive) | > 30 µM (inactive) | > 30 µM (inactive) | > 30 µM (inactive) | > 30 µM (inactive) | CO[C@H]1C[C@@H]2CC[C@@H](C)[C@@](O)(O2)C(=O)C(=O)N2CCCC[C@H]2C(=O)O[C@H]([C@H](C)C[C@@H]2CC[C@@H](OCCO)[C@H](OC)C2)CC(=O)[C@H](C)/C=C(\C)[C@@H](O)[C@@H](OC)C(=O)[C@H](C)C[C@H](C)/C=C/C=C/C=C/1C [EVEROLIMUS] |
| > 30 µM (inactive) | > 30 µM (inactive) | > 30 µM (inactive) | > 30 µM (inactive) | > 30 µM (inactive) | > 30 µM (inactive) | > 30 µM (inactive) | > 30 µM (inactive) | > 30 µM (inactive) | > 30 µM (inactive) | > 30 µM (inactive) | OCCn1cc(-c2cnc3nnn(Cc4ccc5ncccc5c4)c3n2)cn1 [PF-04217903] |
| > 30 µM (inactive) | > 30 µM (inactive) | > 30 µM (inactive) | > 30 µM (inactive) | > 30 µM (inactive) | > 30 µM (inactive) | > 30 µM (inactive) | > 30 µM (inactive) | > 30 µM (inactive) | > 30 µM (inactive) | > 30 µM (inactive) | Cn1cc(-c2ccc(F)c(C(F)(F)F)c2)nc1C1CCN(c2ncnc3[nH]ncc23)CC1 [LY-2584702] |
| > 30 µM (inactive) | > 30 µM (inactive) | > 30 µM (inactive) | 0.302 µM (active) | > 30 µM (inactive) | > 30 µM (inactive) | > 30 µM (inactive) | > 30 µM (inactive) | > 30 µM (inactive) | > 30 µM (inactive) | > 30 µM (inactive) | COc1cc2nccc(Oc3ccc(NC(=O)Nc4cc(C)on4)c(Cl)c3)c2cc1OC [TIVOZANIB] |
| > 30 µM (inactive) | > 30 µM (inactive) | > 30 µM (inactive) | > 30 µM (inactive) | > 30 µM (inactive) | > 30 µM (inactive) | > 30 µM (inactive) | > 30 µM (inactive) | > 30 µM (inactive) | > 30 µM (inactive) | > 30 µM (inactive) | CC(C)Nc1cc(-c2c[nH]c(C(=O)N[C@H](CO)c3cccc(Cl)c3)c2)c(Cl)cn1 [ULIXERTINIB] |
| > 30 µM (inactive) | > 30 µM (inactive) | > 30 µM (inactive) | > 30 µM (inactive) | > 30 µM (inactive) | > 30 µM (inactive) | > 30 µM (inactive) | > 30 µM (inactive) | > 30 µM (inactive) | > 30 µM (inactive) | > 30 µM (inactive) | COc1ccc(-c2ccc3c(N4CCOC[C@@H]4C)nc(N4CCOC[C@@H]4C)nc3n2)cc1CO [AZD-8055] |

| SMILES | Kd [1] | Kd [2] | Kd [3] | Kd [4] | Kd [5] | Kd [6] | Kd [7] | Kd [8] | Kd [9] | Kd [10] | Kd [11] |
| --- | --- | --- | --- | --- | --- | --- | --- | --- | --- | --- | --- |
| Cc1cc(-c2cc(O)ccc2Cl)cc2nnc(Nc3ccc(OCCN4CCCC4)cc3)nc12 | > 30 µM (inactive) | > 30 µM (inactive) | > 30 µM (inactive) | 0.001 µM (active) | > 30 µM (inactive) | > 30 µM (inactive) | > 30 µM (inactive) | > 30 µM (inactive) | 0.003 µM (active) | > 30 µM (inactive) | > 30 µM (inactive) |
| CN1CCC(COc2cnc(-c3cccc(Cn4nc(-c5cccc(C#N)c5)ccc4=O)c3)nc2)CC1 [TEPOTINIB] | > 30 µM (inactive) | > 30 µM (inactive) | > 30 µM (inactive) | > 30 µM (inactive) | > 30 µM (inactive) | > 30 µM (inactive) | > 30 µM (inactive) | > 30 µM (inactive) | > 30 µM (inactive) | > 30 µM (inactive) | > 30 µM (inactive) |
